Data: ChEMBL document CHEMBL3039007, “Structure-based identification of OATP1B1/3 inhibitors” (Mol Pharmacol, 2013)

Legend:
[1] = biological target: T1, Solute carrier organic anion transporter family member 1B1 (Homo sapiens, UniProt Q9Y6L6); details: chinese hamster, cho, 10 µM
T1 sequence (Q9Y6L6 whole entry): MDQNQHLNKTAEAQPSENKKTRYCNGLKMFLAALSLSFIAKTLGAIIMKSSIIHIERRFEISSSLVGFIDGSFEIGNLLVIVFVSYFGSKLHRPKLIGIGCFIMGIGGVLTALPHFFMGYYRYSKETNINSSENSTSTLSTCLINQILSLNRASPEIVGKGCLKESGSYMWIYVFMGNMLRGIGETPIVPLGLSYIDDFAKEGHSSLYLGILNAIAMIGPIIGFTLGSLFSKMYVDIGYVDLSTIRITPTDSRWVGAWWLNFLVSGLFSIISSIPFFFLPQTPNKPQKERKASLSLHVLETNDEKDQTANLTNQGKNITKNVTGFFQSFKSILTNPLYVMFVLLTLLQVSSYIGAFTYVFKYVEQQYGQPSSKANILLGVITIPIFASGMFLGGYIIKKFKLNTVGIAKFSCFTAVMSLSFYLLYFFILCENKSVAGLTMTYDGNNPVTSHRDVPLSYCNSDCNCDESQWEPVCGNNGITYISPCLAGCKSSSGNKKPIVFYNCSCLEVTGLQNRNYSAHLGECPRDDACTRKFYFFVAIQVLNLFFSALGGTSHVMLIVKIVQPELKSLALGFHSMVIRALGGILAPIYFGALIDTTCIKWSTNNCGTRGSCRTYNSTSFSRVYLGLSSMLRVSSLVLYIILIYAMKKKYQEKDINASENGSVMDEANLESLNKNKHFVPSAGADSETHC

[2] = biological target: T2, Solute carrier organic anion transporter family member 1B3 (Homo sapiens, UniProt Q9NPD5); details: chinese hamster, cho, 10 µM
T2 sequence (Q9NPD5 whole entry): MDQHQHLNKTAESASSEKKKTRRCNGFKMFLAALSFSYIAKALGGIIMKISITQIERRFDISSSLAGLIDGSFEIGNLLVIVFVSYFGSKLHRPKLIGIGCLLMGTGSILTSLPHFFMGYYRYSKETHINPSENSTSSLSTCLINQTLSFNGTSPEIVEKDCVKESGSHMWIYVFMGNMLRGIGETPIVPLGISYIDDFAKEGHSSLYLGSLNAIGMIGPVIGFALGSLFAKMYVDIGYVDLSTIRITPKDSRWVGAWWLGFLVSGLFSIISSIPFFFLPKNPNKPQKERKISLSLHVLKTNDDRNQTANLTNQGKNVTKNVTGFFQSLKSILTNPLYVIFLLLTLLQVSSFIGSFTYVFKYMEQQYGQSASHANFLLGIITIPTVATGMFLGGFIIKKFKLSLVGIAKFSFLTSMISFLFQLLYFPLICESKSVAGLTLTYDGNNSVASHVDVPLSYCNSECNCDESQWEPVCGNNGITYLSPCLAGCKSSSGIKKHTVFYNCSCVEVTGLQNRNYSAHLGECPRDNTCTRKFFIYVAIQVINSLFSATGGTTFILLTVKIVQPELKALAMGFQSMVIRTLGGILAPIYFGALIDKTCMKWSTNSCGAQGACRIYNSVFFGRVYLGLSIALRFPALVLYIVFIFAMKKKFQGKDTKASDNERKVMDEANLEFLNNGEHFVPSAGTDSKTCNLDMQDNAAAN

Row | Compound | residual activity [1] [%] | residual activity [2] [%]
1 | O=C(O)c1ccccc1C(=O)Nc1ccc(S(=O)(=O)Nc2nccs2)cc1 [PHTHALYLSULFATHIAZOLE] | 115.5 | 107
2 | COc1cc(O)c2c(c1)C(=O)c1cc(C)cc(O)c1C2=O [PHYSCION] | 111.9 | 112.8
3 | CNC(=O)Oc1ccc2c(c1)[C@]1(C)CCN(C)[C@@H]1N2C.O=C(O)c1ccccc1O [PHYSOSTIGMINE SALICYLATE] | 116 | 110.8
4 | CNC(=O)Oc1ccc2c(c1)[C@]1(C)CCN(C)[C@@H]1N2C.CNC(=O)Oc1ccc2c(c1)[C@]1(C)CCN(C)[C@@H]1N2C.O=S(=O)(O)O [PHYSOSTIGMINE SULFATE] | 101.7 | 99.93
5 | CNC(=O)Oc1ccc2c(c1)[C@]1(C)CCN(C)[C@@H]1N2C [PHYSOSTIGMINE] | 78.13 | 80.76
6 | CC(C)(O)[C@@H]1[C@H]2OC(=O)[C@@H]1[C@]1(O)C[C@H]3O[C@]34C(=O)O[C@H]2[C@]14C [PICROTIN] | 88.44 | 89.14
7 | C=C(C)[C@@H]1[C@H]2OC(=O)[C@@H]1[C@]1(O)C[C@H]3O[C@]34C(=O)O[C@H]2[C@]14C [PICROTOXININ] | 102.7 | 101.9
8 | CC[C@@H]1C(=O)OC[C@@H]1Cc1cncn1C.O=[N+]([O-])O [PILOCARPINE NITRATE] | 82.84 | 95.87
9 | CN1CCC(=C2c3ccccc3Sc3ccccc32)CC1.O=C(O)/C=C\C(=O)O [PIMETHIXENE MALEATE] | 83.52 | 104.8
10 | O=c1[nH]c2ccccc2n1C1CCN(CCCC(c2ccc(F)cc2)c2ccc(F)cc2)CC1 [PIMOZIDE] | 167.9 | 121.7
11 | COc1c(OC)c2occc2c2oc(=O)ccc12 [PIMPINELLIN] | 104.9 | 103.2
12 | CC(N/C(=N\C#N)Nc1ccncc1)C(C)(C)C (centres undefined) [PINACIDIL ANHYDROUS] | 96.43 | 90.66
13 | O=C1C[C@@H](c2ccccc2)Oc2cc(O)cc(O)c21 [PINOCEMBRIN] | 202 | 97.25
14 | Oc1cc(O)cc(/C=C/c2ccccc2)c1 [PINOSYLVIN] | 133.5 | 114.6
15 | CCc1ccc(CCOc2ccc(CC3SC(=O)NC3=O)cc2)nc1.Cl (centres undefined) [PIOGLITAZONE HYDROCHLORIDE] | 122.7 | 88.74
16 | CCn1cc(C(=O)O)c(=O)c2cnc(N3CCNCC3)nc21 [PIPEMIDIC ACID] | 111.8 | 131.1
17 | CC[N+]1(C)CCCC(OC(=O)C(O)(c2ccccc2)c2ccccc2)C1.[Br-] (centres undefined) [PIPENZOLATE BROMIDE] | 70.99 | 86.01
18 | C1CNCCN1 [PIPERAZINE] | 77.78 | 102.1
19 | CCN1CCCC(OC(=O)C(c2ccccc2)c2ccccc2)C1.Cl (centres undefined) [PIPERIDOLATE HYDROCHLORIDE] | 65.65 | 96
20 | O=C(/C=C/C=C/c1ccc2c(c1)OCO2)N1CCCCC1 [PIPERINE] | 186.2 | 97.82
21 | O=C(CCBr)N1CCN(C(=O)CCBr)CC1 [PIPOBROMAN] | 62.45 | 82.4
22 | Cc1nc2ccccn2c(=O)c1CCN1CCC(C(=O)c2ccc(F)cc2)CC1 [PIRENPERONE] | 93.87 | 102.6
23 | CN1CCN(CC(=O)N2c3ccccc3C(=O)Nc3cccnc32)CC1.Cl.Cl [PIRENZEPINE HYDROCHLORIDE] | 103.8 | 100.6
24 | CCn1cc(C(=O)O)c(=O)c2cnc(N3CCCC3)nc21 [PIROMIDIC ACID] | 79.57 | 101

Row | Compound | residual activity [1] [%] | residual activity [2] [%]
25 | CN1C(C(=O)Nc2ccccn2)=C(O)c2ccccc2S1(=O)=O [PIROXICAM] | 68.52 | 87.59
26 | O=C(O)[C@H](O)[C@@](O)(Cc1ccc(O)cc1)C(=O)O [PISCIDIC ACID] | 92.25 | 90.37
27 | COc1cc([C@@H]2c3cc4c(cc3[C@H](O)[C@H]3COC(=O)[C@H]23)OCO4)cc(OC)c1OC [PODOFILOX] | 63.87 | 95.19
28 | CC(C)=CCc1c2c(c3occ(-c4ccc(O)c(O)c4)c(=O)c3c1O)C=CC(C)(C)O2 [POMIFERIN] | 114.2 | 87.87
29 | O=C(O)Cc1nn(Cc2ccc(Br)cc2F)c(=O)c2ccccc12 [PONALRESTAT] | 139.9 | 83.62
30 | CC(=O)Nc1ccc(OCC(O)CNC(C)C)cc1 (centres undefined) [PRACTOLOL] | 107.1 | 99.03
31 | CS(=O)(=O)[O-].C[n+]1ccccc1C=NO [PRALIDOXIME MESYLATE] | 73.31 | 98.72
32 | CCCCOc1ccc(OCCCN2CCOCC2)cc1.Cl [PRAMOXINE HYDROCHLORIDE] | 112 | 99.07
33 | CC[C@H](C)C(=O)O[C@H]1C[C@H](O)C=C2C=C[C@H](C)[C@H](CC[C@@H](O)C[C@@H](O)CC(=O)[O-])[C@H]21.[Na+] [PRAVASTATIN SODIUM] | 100.3 | 102.8
34 | O=C(C1CCCCC1)N1CC(=O)N2CCc3ccccc3C2C1 (centres undefined) [PRAZIQUANTEL] | 162.2 | 125.5
35 | COc1cc2nc(N3CCN(C(=O)c4ccco4)CC3)nc(N)c2cc1OC.Cl [PRAZOSIN HYDROCHLORIDE] | 99.58 | 90.48
36 | CC(=O)OCC(=O)[C@@]1(O)CC[C@H]2[C@@H]3CCC4=CC(=O)C=C[C@]4(C)[C@H]3[C@@H](O)C[C@@]21C [PREDNISOLONE ACETATE] | 63.69 | 106.7
37 | C[C@]12C=CC(=O)C=C1CC[C@@H]1[C@@H]2[C@@H](O)C[C@@]2(C)[C@H]1CC[C@]2(O)C(=O)CO [PREDNISOLONE] | 79.83 | 110.4
38 | CC(C)C[C@H](CN)CC(=O)O [PREGABALIN] | 120.6 | 101.4
39 | CC(C)=CCOc1cc2oc(=O)ccc2cc1O [PRENYLETIN] | 176.8 | 136
40 | CS(=O)(=O)O.OC(CCN1CCCCC1)(c1ccccc1)c1ccccc1 [PRIDINOL METHANESULFONATE] | 95.92 | 95.39
41 | CCCNC(C)C(=O)Nc1ccccc1C.Cl (centres undefined) [PRILOCAINE HYDROCHLORIDE] | 87.24 | 74.6
42 | CCC1(c2ccccc2)C(=O)NCNC1=O [PRIMIDONE] | 78.09 | 90.17
43 | COC(=O)[C@]1(C)CC[C@]2(C)CC[C@]3(C)C4=CC=C5C(=CC(=O)C(O)=C5C)[C@]4(C)CC[C@@]3(C)[C@@H]2C1 [PRISTIMERIN] | 112.2 | 99.45
44 | COC(=O)[C@]1(C)CC[C@]2(C)CC[C@]3(C)C4=CCc5c(cc(OC(C)=O)c(OC(C)=O)c5C)[C@]4(C)CC[C@@]3(C)[C@@H]2C1 [PRISTIMEROL DIACETATE] | 94.14 | 83.45
45 | COC(=O)[C@]1(C)CC[C@]2(C)CC[C@]3(C)C4=CCc5c(cc(O)c(O)c5C)[C@]4(C)CC[C@@]3(C)[C@@H]2C1 [PRISTIMEROL] | 70.1 | 86.64
46 | CCCC(C(=O)OCCN(CC)CC)(c1ccccc1)c1ccccc1.Cl [PROADIFEN HYDROCHLORIDE] | 36.21 | 53.55
47 | CCCN(CCC)S(=O)(=O)c1ccc(C(=O)O)cc1 [PROBENECID] | 81.99 | 89.44
